{"source": "patent US9695155B2", "about": "“Herbicidal substituted pyrimidinyloxy benzene compounds” (E. I. DU PONT DE NEMOURS AND COMPANY, priority 2013, dated 2017)", "key": {"ragweed [1]": {"tested_on": "ragweed", "experiment": "Test C preemergence", "type": "in vivo, Ambrosia elatior", "conditions": "Ambrosia artemisiifolia, pre-emergence, preemergence, read-out: Ragweed plant response rating", "in_short": "(§1)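 Rated visually on 0–100 (100 = complete control) after 13–15 days under glass. Treatments went onto freshly seeded loam/sand soil or onto emerged plants at the 1- to 4-leaf stage, using a surfactant-containing solvent formulation.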"}, "giant foxtail": {"tested_on": "giant foxtail", "experiment": "Test C preemergence", "type": "in vivo, Setaria faberii", "conditions": "Setaria faberi, pre-emergence", "in_short": "as §1"}, "soybean": {"tested_on": "soybean", "experiment": "Test C preemergence", "type": "in vivo, Glycine max", "conditions": "Glycine max, pre-emergence, preemergence, read-out: Soybean plant response rating", "in_short": "as §1"}, "kochia [2]": {"tested_on": "kochia", "experiment": "Test A preemergence", "type": "in vivo, Kochia scoparia", "conditions": "0 to 100 scale where 0 is no effect and 100 is complete control", "in_short": "(§2)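 Visual injury scored 0–100 (100 = complete control) against untreated controls about 10 days after treatment in a greenhouse. Test chemicals, formulated with surfactant in non-phytotoxic solvent, were sprayed on soil preemergence or on 2-10 cm, one- to two-leaf plants postemergence.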"}, "lambsquarters": {"tested_on": "lambsquarters", "experiment": "Test C preemergence", "type": "in vivo, Chenopodium album", "conditions": "Chenopodium album, pre-emergence, preemergence, read-out: Lambsquarters plant response rating", "in_short": "as §1"}, "kochia [3]": {"tested_on": "kochia", "experiment": "Test A postemergence", "type": "in vivo, Kochia scoparia", "in_short": "as §2"}, "velvetleaf": {"tested_on": "velvetleaf", "experiment": "Test C preemergence", "type": "in vivo, Abutilon theophrasti", "conditions": "Abutilon theophrasti, pre-emergence, preemergence, read-out: Velvetleaf plant response rating", "in_short": "as §1"}, "johnsongrass": {"tested_on": "johnsongrass", "experiment": "Test C preemergence", "type": "in vivo, Sorghum halepense", "conditions": "Sorghum halepense, pre-emergence, preemergence, read-out: Johnsongrass plant response rating", "in_short": "as §1"}, "galium": {"tested_on": "galium", "experiment": "Test C preemergence", "type": "in vivo, Galium aparine", "conditions": "Galium, pre-emergence", "in_short": "as §1"}, "Italian ryegrass": {"tested_on": "Italian ryegrass", "experiment": "Test C preemergence", "type": "in vivo, Lolium multiflorum", "conditions": "Lolium multiflorum, pre-emergence, preemergence, read-out: Ryegrass, Italian plant response rating", "in_short": "as §1"}, "wheat, winter": {"tested_on": "wheat, winter", "experiment": "Test C preemergence", "type": "in vivo, Triticum aestivum", "conditions": "Triticum aestivum, pre-emergence, preemergence, read-out: Wheat plant response rating", "in_short": "as §1"}, "blackgrass": {"tested_on": "blackgrass", "experiment": "Test C preemergence", "type": "in vivo, Alopecurus myosuroides", "conditions": "Alopecurus myosuroides, pre-emergence", "in_short": "as §1"}, "oilseed rape": {"tested_on": "oilseed rape", "experiment": "Test C preemergence", "type": "in vivo, Brassica napus", "conditions": "Brassica napus, pre-emergence, preemergence, read-out: Oilseed Rape plant response rating", "in_short": "as §1"}, "corn": {"tested_on": "corn", "experiment": "Test C preemergence", "type": "in vivo, Zea mays", "conditions": "Zea mays, pre-emergence", "in_short": "as §1"}, "barnyardgrass": {"tested_on": "barnyardgrass", "experiment": "Test C preemergence", "type": "in vivo, Echinochloa crus-galli", "conditions": "Echinochloa crus-galli, pre-emergence", "in_short": "as §1"}, "ragweed [4]": {"tested_on": "ragweed", "experiment": "Test A postemergence", "type": "in vivo, Ambrosia elatior", "in_short": "as §2"}, "morningglory": {"tested_on": "morningglory", "experiment": "Test C preemergence", "type": "in vivo, Ipomoea coccinea", "conditions": "Ipomoea, pre-emergence, preemergence, read-out: Morningglory plant response rating", "in_short": "as §1"}, "[5]": {"conditions": "16 g ai/ha, scale 0 to 100 (0 no effect, 100 complete control)"}, "[6]": {"conditions": "62 g ai/ha, scale 0 (no effect) to 100 (complete control)"}, "[7]": {"conditions": "125 g ai/ha, scale 0 (no effect) to 100 (complete control)"}, "[8]": {"conditions": "31 g ai/ha, 0 to 100 scale, 0 no effect, 100 complete control"}, "[9]": {"conditions": "125 g ai/ha, 0 to 100 scale where 0 is no effect and 100 is complete control"}}}
{"smiles": "Fc1cccc(Oc2ncc(Cl)cn2)c1-n1cc(C(F)F)nn1", "note": "[Compound 141, 5-chloro-2-[2-[4-(difluoromethyl)-1H-1,2,3-triazol-1-yl]-3-fluorophenoxy]pyrimidine]", "values": [{"measurement": "pest or weed control at 16 g/ha", "setting": "ragweed [1]; [5]", "value": 85, "unit": "%"}, {"measurement": "pest or weed control at 62 g/ha", "setting": "ragweed [1]; [6]", "value": 100, "unit": "%"}, {"measurement": "pest or weed control at 125 g/ha", "setting": "ragweed [1]; [7]", "value": 100, "unit": "%"}, {"measurement": "pest or weed control at 16 g/ha", "setting": "giant foxtail; 16 g ai/ha, preemergence, scale 0 to 100 (0 no effect, 100 complete control), read-out: Foxtail, Giant plant response rating", "value": 90, "unit": "%"}, {"measurement": "pest or weed control at 62 g/ha", "setting": "giant foxtail; 62 g ai/ha, preemergence, scale 0 (no effect) to 100 (complete control), read-out: Foxtail, Giant plant response rating", "value": 100, "unit": "%"}, {"measurement": "pest or weed control at 125 g/ha", "setting": "giant foxtail; 125 g ai/ha, preemergence, scale 0 (no effect) to 100 (complete control), read-out: Foxtail, Giant plant response rating", "value": 100, "unit": "%"}, {"measurement": "pest or weed control at 31 g/ha", "setting": "giant foxtail; Preemergence, 31 g ai/ha, scale 0 to 100, 0 no effect, 100 complete control, read-out: Plant response rating, Foxtail, Giant", "value": 100, "unit": "%"}, {"measurement": "plant injury at 16 g/ha", "setting": "soybean; [5]", "value": 65, "unit": "%"}, {"measurement": "plant injury at 62 g/ha", "setting": "soybean; [6]", "value": 90, "unit": "%"}, {"measurement": "plant injury at 125 g/ha", "setting": "soybean; [7]", "value": 98, "unit": "%"}, {"measurement": "Plant response rating, Kochia", "setting": "kochia [2]; 31 g ai/ha, visual, approximately 10 days", "value": 100}, {"measurement": "Plant response rating, Kochia", "setting": "kochia [2]; 125 g ai/ha", "value": 100}, {"measurement": "pest or weed control at 16 g/ha", "setting": "lambsquarters; [5]", "value": 85, "unit": "%"}, {"measurement": "pest or weed control at 62 g/ha", "setting": "lambsquarters; [6]", "value": 100, "unit": "%"}, {"measurement": "pest or weed control at 125 g/ha", "setting": "lambsquarters; [7]", "value": 100, "unit": "%"}, {"measurement": "Plant response rating, Kochia", "setting": "kochia [3]; [8]", "value": 100}, {"measurement": "Kochia plant response rating", "setting": "kochia [3]; [9]", "value": 100}, {"measurement": "pest or weed control at 16 g/ha", "setting": "velvetleaf; [5]", "value": 100, "unit": "%"}, {"measurement": "pest or weed control at 62 g/ha", "setting": "velvetleaf; [6]", "value": 100, "unit": "%"}, {"measurement": "pest or weed control at 125 g/ha", "setting": "velvetleaf; [7]", "value": 100, "unit": "%"}, {"measurement": "pest or weed control at 16 g/ha", "setting": "johnsongrass; [5]", "value": 30, "unit": "%"}, {"measurement": "pest or weed control at 62 g/ha", "setting": "johnsongrass; [6]", "value": 100, "unit": "%"}, {"measurement": "pest or weed control at 125 g/ha", "setting": "johnsongrass; [7]", "value": 100, "unit": "%"}, {"measurement": "pest or weed control at 16 g/ha", "setting": "galium; 16 g ai/ha, preemergence, scale 0 to 100 (0 no effect, 100 complete control), read-out: Galium plant response rating", "value": 98, "unit": "%"}, {"measurement": "pest or weed control at 62 g/ha", "setting": "galium; 62 g ai/ha, preemergence, scale 0 (no effect) to 100 (complete control), read-out: Galium plant response rating", "value": 100, "unit": "%"}, {"measurement": "pest or weed control at 125 g/ha", "setting": "galium; 125 g ai/ha, preemergence, scale 0 (no effect) to 100 (complete control), read-out: Galium plant response rating", "value": 100, "unit": "%"}, {"measurement": "pest or weed control at 31 g/ha", "setting": "galium; Preemergence, 31 g ai/ha, scale 0 to 100, 0 no effect, 100 complete control, read-out: Plant response rating, Galium", "value": 98, "unit": "%"}, {"measurement": "pest or weed control at 16 g/ha", "setting": "Italian ryegrass; [5]", "value": 40, "unit": "%"}, {"measurement": "pest or weed control at 62 g/ha", "setting": "Italian ryegrass; [6]", "value": 75, "unit": "%"}, {"measurement": "pest or weed control at 125 g/ha", "setting": "Italian ryegrass; [7]", "value": 100, "unit": "%"}, {"measurement": "plant injury at 16 g/ha", "setting": "wheat, winter; [5]", "value": 0, "unit": "%"}, {"measurement": "plant injury at 62 g/ha", "setting": "wheat, winter; [6]", "value": 40, "unit": "%"}, {"measurement": "plant injury at 125 g/ha", "setting": "wheat, winter; [7]", "value": 60, "unit": "%"}, {"measurement": "pest or weed control at 16 g/ha", "setting": "blackgrass; 16 g ai/ha, preemergence, scale 0 to 100 (0 no effect, 100 complete control), read-out: Blackgrass plant response rating", "value": 80, "unit": "%"}, {"measurement": "pest or weed control at 62 g/ha", "setting": "blackgrass; 62 g ai/ha, preemergence, scale 0 (no effect) to 100 (complete control), read-out: Blackgrass plant response rating", "value": 95, "unit": "%"}, {"measurement": "pest or weed control at 125 g/ha", "setting": "blackgrass; 125 g ai/ha, preemergence, scale 0 (no effect) to 100 (complete control), read-out: Blackgrass plant response rating", "value": 95, "unit": "%"}, {"measurement": "pest or weed control at 31 g/ha", "setting": "blackgrass; Preemergence, 31 g ai/ha, scale 0 to 100, 0 no effect, 100 complete control, read-out: Plant response rating, Blackgrass", "value": 95, "unit": "%"}, {"measurement": "plant injury at 16 g/ha", "setting": "oilseed rape; [5]", "value": 100, "unit": "%"}, {"measurement": "plant injury at 62 g/ha", "setting": "oilseed rape; [6]", "value": 100, "unit": "%"}, {"measurement": "plant injury at 125 g/ha", "setting": "oilseed rape; [7]", "value": 100, "unit": "%"}, {"measurement": "plant injury at 16 g/ha", "setting": "corn; 16 g ai/ha, preemergence, scale 0 to 100 (0 no effect, 100 complete control), read-out: Corn plant response rating", "value": 5, "unit": "%"}, {"measurement": "plant injury at 62 g/ha", "setting": "corn; 62 g ai/ha, preemergence, scale 0 (no effect) to 100 (complete control), read-out: Corn plant response rating", "value": 80, "unit": "%"}, {"measurement": "plant injury at 125 g/ha", "setting": "corn; 125 g ai/ha, preemergence, scale 0 (no effect) to 100 (complete control), read-out: Corn plant response rating", "value": 90, "unit": "%"}, {"measurement": "Corn plant response rating (crop injury, 0 = no effect, 100 = complete kill) at 31 g/ha", "setting": "corn; Preemergence, 31 g ai/ha, scale 0 to 100, 0 no effect, 100 complete control", "value": 20, "unit": "%"}, {"measurement": "pest or weed control at 16 g/ha", "setting": "barnyardgrass; 16 g ai/ha, preemergence, scale 0 to 100 (0 no effect, 100 complete control), read-out: Barnyardgrass plant response rating", "value": 80, "unit": "%"}, {"measurement": "pest or weed control at 62 g/ha", "setting": "barnyardgrass; 62 g ai/ha, preemergence, scale 0 (no effect) to 100 (complete control), read-out: Barnyardgrass plant response rating", "value": 100, "unit": "%"}, {"measurement": "pest or weed control at 125 g/ha", "setting": "barnyardgrass; 125 g ai/ha, preemergence, scale 0 (no effect) to 100 (complete control), read-out: Barnyardgrass plant response rating", "value": 100, "unit": "%"}, {"measurement": "pest or weed control at 31 g/ha", "setting": "barnyardgrass; Preemergence, 31 g ai/ha, scale 0 to 100, 0 no effect, 100 complete control, read-out: Plant response rating, Barnyardgrass", "value": 100, "unit": "%"}, {"measurement": "Plant response rating, Ragweed", "setting": "ragweed [4]; [8]", "value": 80}, {"measurement": "Ragweed plant response rating", "setting": "ragweed [4]; [9]", "value": 100}, {"measurement": "pest or weed control at 16 g/ha", "setting": "morningglory; [5]", "value": 75, "unit": "%"}, {"measurement": "pest or weed control at 62 g/ha", "setting": "morningglory; [6]", "value": 100, "unit": "%"}, {"measurement": "pest or weed control at 125 g/ha", "setting": "morningglory; [7]", "value": 100, "unit": "%"}]}
